# Laboratory results reported in US11993640B2, “Treating inflammatory lung disease” (United States Government as represented by the Department …, priority 2019, dated 2024).
# Non-standard residues stand in square brackets, D forms with d. Residues, ends and D or L forms follow the SMILES beside them. *: point of attachment. Phe(F5) = N[C@@H](Cc1c(F)c(F)c(F)c(F)c1F)C(=O)O; hArg = N=C(N)NCCCC[C@H](N)C(=O)O; 12Ado = NCCCCCCCCCCCC(=O)O; Nle = CCCC[C@H](N)C(=O)O; Orn = NCCC[C@H](N)C(=O)O; Abu = CC[C@H](N)C(=O)O; PhAc = O=C(Cc1ccccc1)*
# Experiments:
# [1] = system: HCC827 xenograft; test: Xenograft tumor growth in nude mice, lung cancer HCC827; type: in vivo; details: Panel C, 8 weeks, 5 μg/day s.c.
# Procedure: (§1) The peptides' activity was compared with GHRH antagonist MIA-602. All statistical analyzses were performed from comparing GHRA antagonists to non-treated tumor (control).
# (§2) Peptides and chemicals. GHRH antagonists MIA-602 and AVR-GHRH antagonists (see Table 2 above) were synthesized by solid phase methods and purified by HPLC. The peptides were dissolved in DMSO and further diluted in 10% 1, 2-propanediol. The final concentration of peptides was 50 µg/ml in 10% 1, 2-propanediol containing 0.1% of DMSO.
# (§3) Cell culture. Human cancer cell lines including pancreatic (PANC-1 and CFPAC-1), lung (HCC827 and H460), stomach (NCI-N87), prostate (PC3), brest (MX-1 and HCC-1806), colorectal (HT-29), and ovarian (SK-OV-3 and OVCAR-3) were obtained from the American Type Culture Collection (ATCC) and cultured at 37° C. in a humidified 95% air/5% CO2 atmosphere in the medium recommended by ATCC.
# (§4) Xenograft models of human cancers in nude mice. Female athymic (NCr nu/nu) nude mice, 5-to 6-weeks-old, obtained from the Envigo labs (Tampa, FL), were housed in laminar airflow cabinets under pathogen-free conditions with a 12-h light/12-h dark schedule, and were fed autoclaved standard chow and water. To generate mice with xenografted tumors, tumor xenografts were initiated by subcutaneous (s.c.) injection of […] human cancer cells into female nude mice. After about 4 weeks the resulting tumors were dissected and collected after removing necrosis tissues. The tumors were then cut into particles with size of ˜3 mm3 and transplanted s.c. by trocar needle into experimental animals. When tumors grew to the size of 50-60 mm3 (by volume), mice were randomized into groups and treated daily for 4-8 weeks by subcutaneous administration of 5 μg of GHRH antagonists MIA-602 or AVR-compounds (2-10 μg as indicated), or vehicle solutions (0.1% DMSO in 10% 1, 2-propanediol) respectively. Tumor sizes were measured weekly.
# (§5) Statistical analysis. One-way ANOVA followed by Bonferroni comparison were performed. Data are expressed as Mean±SEM. To determine statistical significance between animal groups, two-tailed Student's t-test was conducted. Differences were considered significant when p<0.05.
# (§6) Results. […] FIG. 1A-N represents in vivo inhibition of tumor growth during the treatment with GHRH antagonist MIA-602 and selected AVR antagonists in nude mice xenografted with various human tumors including pancreatic cancer PANC-1 (FIG. 1A) and CFPAC-1 (FIG. 1I); lung cancer HCC827 (FIGS. 1B, C) and H460 (FIG. 1H); stomach cancer N87 (FIGS. 1D-F); colon cancer HT-29 (FIG. 1G); breast cancer MX-1 and HCC-1806 (FIGS. 1J, K); ovarian cancer SK-OV-3 and OVACAR-3 (FIGS. 1L, M) and prostate cancer PC3 (FIG. 1N). See also Table 5.
# [2] = system: HT-29 xenograft; test: Xenograft tumor growth in nude mice, colon cancer HT-29; type: in vivo; details: Panel G, 6 weeks, 5 μg/day s.c.
# Procedure: as §1, §2, §3, §4, §5, §6
# [3] = system: OVCAR-3 xenograft; test: Xenograft tumor growth in nude mice, ovarian cancer OVCAR-3; type: in vivo; details: Panel M, 9 weeks, 5 μg/day s.c.
# Procedure: as §1, §2, §3, §4
# Statistical analysis. One-way ANOVA followed by Bonferroni comparison were performed. Data are expressed as Mean±SEM. […]
# [4] = system: mouse lung fibroblasts (Mlg 2908); test: RNAseq of cultured lung fibroblasts; type: cell-based; details: 1 and 5 μM, normal fibroblasts not exposed to bleomycin
# Procedure: Lung fibroblasts. Newborn mouse lung fibroblasts (Mlg 2908) were obtained from the American Type Culture Collection, Manassas, VA and cultured in Eagle's minimal essential medium. Cells were grown in 6-well plates before incubation with 1 or 5 μM MIA-602 or vehicle, RNA isolation, and oxygen consumption measurements.
# RNA was extracted from cultured fibroblasts using a Direct-zol RNA MicroPrep kit (R2060; Zymo Research, Irvine, CA). Cells were washed with PBS and lysed in TRIreagent™, then purified using Direct-zol RNA columns. DNase I treatment was done in columns and RNA eluted in DNase/Rnase-free water.
# RNAseq and Pathway analyses. At least 10 ng of total RNA was used as input for the KAPA RNA HyperPrep Kit with RiboErase (HMR) to create ribosomal RNA-depleted sequencing libraries, including sample indexing, to allow for multiplexing. Cluster generation and sequencing was done on the Illumina cBOT and HiSeq 3000 using reagents provided by Illumina, finally generating >32 million single-end 100 base reads per sample.
# De-multiplexed FASTQ files were created with Illumina supplied scripts in BCL2FASTQ software (v2.17). […]
# Gene counts were normalized using trimmed mean of M-values (TMM) method. Differential expression between groups was calculated with the exact test implemented in edgeR (Robinson M, McCarthy D, Smyth G (2010). Bioinformatics 26:139-140). […]
smiles,measurement,setting,value
"CCCC[C@H](NC(=O)[C@@H](NC(=O)[C@H](CC(=O)O)NC(=O)[C@H](CCC(N)=O)NC(=O)[C@H](CC(C)C)NC(=O)[C@H](CC(C)C)NC(=O)[C@H](CCCN)NC(=O)[C@H](Cc1c[nH]cn1)NC(=O)[C@H](C)NC(=O)[C@H](CO)NC(=O)[C@H](CC(C)C)NC(=O)[C@H](CCC(N)=O)NC(=O)[C@H](CC)NC(=O)[C@H](CC(C)C)NC(=O)[C@@H](NC(=O)[C@H](CCCN)NC(=O)[C@H](Cc1c[nH]cn1)NC(=O)[C@H](Cc1ccc(OC)cc1)NC(=O)[C@H](CCCCNC(=N)N)NC(=O)[C@H](C)NC(=O)[C@@H](NC(=O)[C@H](Cc1c(F)c(F)c(F)c(F)c1F)NC(=O)[C@@H](NC(=O)[C@H](C)NC(=O)[C@H](CC(=O)O)NC(=O)[C@@H](CCCNC(=N)N)NC(=O)[C@H](Cc1ccc(O)cc1)NC(=O)CCCCCCCCCCCNC(=O)Cc1ccccc1)[C@@H](C)CC)[C@@H](C)O)C(C)C)[C@@H](C)CC)C(=O)N[C@H](CCCNC(=N)N)C(=O)N[C@@H](CCCCNC(=N)N)C(N)=O [MIA-602, PhAC-Ada, Tyr D-Arg, Asp, Ala, Ile, 5FPhe, Thr, Ala, Har, Tyr(Me), His, Orn, Val, Leu, Abu, Gin, Leu, Ser, Ala, His, Orn, Leu, Leu, Gin, Asp, Ile, Nle, D-Arg, Har NH2, reference compound] ({PhAc-12Ado}-Y[dR]DAI[Phe(F5)]TA[hArg]Y(Me)H[Orn]VL[Abu]QLSAH[Orn]LLQDI[Nle][dR][hArg]-NH2)",Tumor Growth %,[1],523.03%
same,% Inhibition,[1]; vs control,37.8%
same,Tumor Growth %,[2],582.10%
same,Tumor Growth %,[3],267.2%
same,Fibroblast gene expression,[4],"significant downregulation of genes involved in collagen fibril organization, cell-matrix adhesion and elastic fiber assembly"
